Measured values taken from patent US20130337014A1 (priority 2008, published 2013).

Test system: Clostridium perfringens
Assay type: in vivo, broiler chickens (Cobb X Cobb)
Conditions: CP challenged

SMILES: CC[C@@H](C(=O)[C@@H](C)[C@@H](O)[C@H](C)[C@@H]1O[C@@H]([C@@H](CC)C(=O)O)CC[C@@H]1C)[C@H]1O[C@]2(C=C[C@@H](O)[C@]3(CC[C@@](C)([C@H]4CC[C@](O)(CC)[C@H](C)O4)O3)O2)[C@H](C)C[C@@H]1C [S, salinomycin]
- Necrotic Enteritis Lesion Score (Day 22, 0 to 3 score): 0.10
- Average Weight Gain (kg) Days 0 to 21 (Days 0 to 21): .592 kg
- Feed Conversion Ratio (feed to gain ratio) Days 0 to 21 (Days 0 to 21): 1.550
- Feed Conversion Ratio (feed to gain ratio) Days 0 to 42 (Days 0 to 42): 1.914
- Mortality (%) All Causes Days 0 to 42 (Days 0 to 42): 4.67%
- Mortality (%) Necrotic Enteritis Days 0 to 42 (Days 0 to 42): 1.33%
- Feed Conversion Ratio (feed to gain ratio) Days 21 to 42 (Days 21 to 42): 2.126
